This note sets out measurements from patent US20070010548A1, “Compounds having inhibitive activity of phosphatidylinositol 3-kinase and methods of use thereof” (ZENTARIS GmbH, priority 2003, published 2007).

The test system of this assay is MA-MB-468 cells. In words: Three dimensional matrix model of tumor cell growth. The assay is classed as cell-based. To be noted: Homo sapiens, read-out: Percent Inhibition of Tumor Cell Viability. The procedure: PI 3-K inhibitors are assayed for effects on tumor cells grown in three-dimensional matrix that more closely mimics the environment of a tumor than other cell culture models. MA-MB-468 cells are mixed in a matrix solution, such as Matrigel (13D Biosciences) at 2×10 ^6 cells/ml and 100 μl of this mixture added to each well of a 24 well cell culture plate. Each well is 6.5 mm in diameter and 2×10^5 cells are added per well. Once the matrix is solidified, RMPI media containing 10% fetal calf serum and 2 mM L-glutamine is added to each well. After approximately 14 days of culture, the compounds are added to cell media at final concentrations ranging from 10 nM to 100 μM, and the cells are grown in the presence of the compounds for 7 days in RMPI media containing 0.5% fetal calf serum and 20 mM L-glutamine.
Following this treatment, cell growth in the three dimensional matrix can be measured using a cell viability assay such as the CellTiter 96 One Solution Cell Proliferation Assay (Promega, G3582). […] of assay solution is added per well, the cells are incubated for 3 hours. Absorbance at 550 nm is determined for each well and used directly as being equivalent of cell number. In addition, live and dead cells can be distinguished and observed using fluorescence microscopy after staining with Fluorescein diacetate (Sigma), which labels live cells, and propidium iodide (Sigma), which labels dead cells.
The PI 3-K inhibitors of the present invention show anti-proliferative effects in this model of tumor cell growth, as shown by the representative data in Table 6, which compares the anti-proliferative effects of one inhibitor compared to the effects of the benchmark PI 3-K inhibitor LY294002. The PI 3-K inhibitors of the present invention also show enhanced anti-proliferative activity when combined with other cancer drugs, for example paclitaxel or doxorubicin.

In the case of `CC1(C)CC(=O)C2=C(C1)Nc1c(c(C(C)(C)C)nn1C(C)(C)C)C2c1ccc(OCc2ccccc2)c(OCc2ccccc2)c1` (stereo not shown) [Compound 963985], the cytotoxicity at 1 µM (Concentration 1 μM) came out at 10%. Further, the cytotoxicity at 5 µM (Concentration 5 μM) was 20%. The cytotoxicity at 10 µM (Concentration 10 μM) was 30%. Further, the cytotoxicity at 50 µM (Concentration 50 μM) was 40%.
